Test results from patent publication US8148431B2, “Osteogenesis promoter containing β-cryptoxanthin as the active ingredient” (Kemin Health, L.C., priority 2002, dated 2012).
Marks after values point to notes of the source that are not given here.

Legend:
Format in all cases: cell-based, Wistar male rats
[1] = tested on: diaphysis tissue of the femur; experiment: Bone resorption (PTH or prostaglandin E2): bone calcium level in cultured diaphysis tissue
Protocol: (§1) The femurs were extracted from rats (Wistar male rats; 4 to 5 weeks old) (purchased from Japan SLC Co., Ltd. and fed with solid Oriental yeast (MF)) under anesthesia with ether under a germfree condition. The femurs were each washed with 0.25 M sucrose solution, and then divided into the diaphysis (cortical bone) and metaphysis (cancellous bone). The bone tissue pieces were cultured in a culture medium (Dulbecco's modified culture medium containing 5% of glucose; serum-free medium) containing. β-cryptoxanthin, etc. at […] in an incubator filled with 5% CO2-95% air for 48 hours. β-cryptoxanthin used was “β-cryptoxanthin” of Extrasynthase Co., cycloheximide used was “Cycloheximide” of Sigma Co. Ltd., β-carotene was “β-carotene” of Sigma ? , xanthine was “Xanthine” of Sigma Co, Ltd., parathormone was “Parathormone” of Sigma Co. Ltd. and prostaglandin E2 was “Prostaglandin E2” of Sigma Co. Ltd. In the control, only the culture medium was used without β-cryptoxanthin or the like.
(§2) Bone calcium level in the bone tissue was determined. After the culture in the incubator, the tissue pieces were washed with 0.25 M sucrose solution and dried and then the bone was weighed. Then concentrated nitric acid was added to the tissue pieces. After the incineration at 120° C. for 12 hours, the bone calcium level was determined with an atomic absorption photometer (“Perkin-Elmer 303” of Perkin-Elmer Co.).
The bone mineral dissolution-inhibiting effect of β-cryptoxanthin was examined. […] PTH also has a pathophysiologic role on the expression of osteoporosis caused by the aging. It is known that prostaglandin E2 also causes physiologic bone mineral dissolution. The diaphysis or metaphysis tissue of the femur was cultured in the presence of 10^−7 M PTH or 10^−5 M prostaglandin E2 for 48 hours and then calcium level in the bone tissue was determined. In another experiment, the culture was conducted in the same manner as that described above in the coexistence of them and β-cryptoxanthin (10^−8 M to 10^−6 M) and then calcium level in the bone tissue was determined. In each test group, the determination was conducted 6 to 8 times and the results were represented by the average value and the standard error. The significant difference was determined by Student's t-test. The result was compared with that of the control. When P value was not higher than 0.01 (*) as compared with the control or it is not higher than 0.1 (#) as compared with that of prostaglandin E2, the results were statistically significant.

[2] = tested on: diaphysis tissue of the femur (cortical bone); experiment: Bone alkaline phosphatase activity in cultured femoral diaphysis tissue pieces; details: for Bone alkaline phosphatase activity: diaphysis tissue, mean ± SE
Protocol: as §1
The expression level of alkaline phosphatase, which is the most important enzyme for the acceleration of the calcification of bones, was examined. The tissue pieces cultured in the incubator were washed in 0.25 M sucrose solution, then pulverized in 3 ml of 65 mM barbital buffer (pH 7-4) and treated with ultrasonic waves. The resultant liquid was centrifuged. The supernatant, as the enzyme solution, was determined by a method of Walter ad Schutt in Method of Enzymatic Analysis, Vol. 1-2, p. 856, Academic Press, New York, 1965). Namely, this method was carried out as follows: p-nitrophenylphosphoric acid was used as the substrate. 0.05 ml of the enzyme solution was added to 2 ml of diethanolamine buffer (pH 9.8). After the incubation at 37° C. for 30 minutes, 10 ml of 0.05 N NaOH was added to the mixture. The absorbance (405 nm) was determined with a spectrophotometer to determine bone alkaline phosphatase activity of a bone remedy or a compound known to be effective for the bones.
(§3) The bone component-increasing effect of β-cryptoxanthin was examined. The diaphysis and metaphysis tissue of the femur was cultured in the above-described culture medium containing β-cryptoxanthin (10^−5 to 10^−5 M) for 48 hours. Calcium level in the bone tissue, alkaline phosphatase activity (enzyme for accelerating the bone calcification) and the amount of deoxyribonucleic acid (DNA; index of number of cells in the bone tissue) were determined by the same methods as in Example 1. In each test group, the determination vas conducted 6 to 8 times and the results were represented by the average value and the standard error. The significant difference was determined by Student's t-test. The result was compared with that of the control. When P value was not higher than 0.01 (**) or not higher than 0.05 (*), the results were statistically significant.

[3] = tested on: diaphysis tissue of the femur (cortical bone); experiment: Bone calcium level in cultured femoral diaphysis tissue pieces; details: for Bone calcium level: diaphysis tissue, mean ± SE
Protocol: as §1, §2, §3

[4] = tested on: metaphysis tissue of the femur (cancellous bone); experiment: Bone calcium level in cultured femoral metaphysis tissue pieces; details: for Bone calcium level: metaphysis tissue, mean ± SE
Protocol: as §1, §2
as §3, with “The diaphysis and metaphysis tissue of the femur was cultured in the above-described culture medium containing β-cryptoxanthin (10^−5 to 10^−5 M) for 48 hours.” left out

[5] = Table 2 (protein synthesis inhibitor experiment), 10^−6 M (each agent), n=6
[6] = β-cryptoxanthin 10^−6 M with cycloheximide
[7] = 10^−8 to 10^−5 M, 48 h culture, vs control

CC1=C(/C=C/C(C)=C/C=C/C(C)=C/C=C/C=C(C)/C=C/C=C(C)/C=C/C2=C(C)C[C@@H](O)CC2(C)C)C(C)(C)CCC1 [β-cryptoxanthin]
Control of prostaglandin E2-caused reduction of calcium level in the bone tissue (in words) ([1]; diaphysis tissue, β-cryptoxanthin 10^−5 to 10^−6 M (so in the source) with prostaglandin E2 10^−5 M): completely controlled | Control of PTH-caused reduction of calcium level in the diaphysis tissue (in words) ([1]; β-cryptoxanthin 10^−8 to 10^−6 M in the presence of PTH): significantly controlled | Effect on alkaline phosphatase activity in the diaphysis (in words) ([2]; 10^−7 to 10^−5 M, 48 h culture, vs control): significantly increased | Bone alkaline phosphatase activity [2, 5]: 691.5 ± 11.2* nmol/min/mg protein | Bone alkaline phosphatase activity ([2]; 10^−5 M, 48 h culture): 644.6 ± 15.2** nmol/min/mg protein | Bone alkaline phosphatase activity ([2]; 10^−6 M, 48 h culture): 684.0 ± 17.7** nmol/min/mg protein | Bone alkaline phosphatase activity ([2]; 10^−7 M, 48 h culture): 604.2 ± 9.6* nmol/min/mg protein | Bone alkaline phosphatase activity ([2]; 10^−8 M, 48 h culture): 568.5 ± 9.5 nmol/min/mg protein | Bone alkaline phosphatase activity in diaphysis tissue increased by β-cryptoxanthin: change in the presence of cycloheximide (in words) [2, 6]: significantly lowered | Effect on calcium level in the diaphysis tissue (in words) [3, 7]: significant increase | Bone calcium level [3, 5]: 275.1 ± 4.50* mg/g dry weight | Bone calcium level ([3]; 10^−5 M, 48 h culture): 291.7 ± 2.29** mg/g dry weight | Bone calcium level ([3]; 10^−6 M, 48 h culture): 272.2 ± 3.15** mg/g dry weight | Bone calcium level ([3]; 10^−7 M, 48 h culture): 269.9 ± 6.26** mg/g dry weight | Bone calcium level ([3]; 10^−8 M, 48 h culture): 249.6 ± 3.33** mg/g dry weight | Calcium level in diaphysis tissue increased by β-cryptoxanthin: change in the presence of cycloheximide (in words) [3, 6]: significantly lowered | Effect on calcium level in the metaphysis tissue (in words) [4, 7]: significant increase | Bone calcium level [4, 5]: 220.0 ± 3.25* mg/g dry weight | Bone calcium level ([4]; 10^−5 M, 48 h culture): 213.5 ± 5.59** mg/g dry weight | Bone calcium level ([4]; 10^−6 M, 48 h culture): 216.8 ± 2.84** mg/g dry weight | Bone calcium level ([4]; 10^−7 M, 48 h culture): 223.6 ± 9.27** mg/g dry weight | Bone calcium level ([4]; 10^−8 M, 48 h culture): 204.7 ± 6.40** mg/g dry weight | Calcium level in metaphysis tissue increased by β-cryptoxanthin: change in the presence of cycloheximide (in words) [4, 6]: significantly lowered
